US20190290892A1, “METHODS OF DETERMINING DOSING OF A THERAPEUTIC AGENT BASED ON MEASURED LEVELS OF A METABOLITE” (Clear Creek Bio, Inc., priority 2018, published 2019)

Key:
[1] = Burris, 650 mg/m^2 brequinar (days 1, 8 and 15) with 75 mg/m^2 cisplatin (day 1); cited from earlier work
[2] = Adverse events in subjects receiving brequinar intravenously once a week; assay type: in vivo, human; settings: i.v. once a week, 209 subjects
advanced lung cancer = settings: Gralla, weekly rapid iv injection from 5 mg/kg (200 mg/m^2), previously treated patients with advanced lung cancer; cited from earlier work

Cc1c(-c2ccc(-c3ccccc3F)cc2)nc2ccc(F)cc2c1C(=O)O [brequinar, 6-fluoro-2-(2′-fluoro-1,1′ biphenyl-4-yl)-3-methyl-4-quinoline carboxylic acid]
effect of combination on individual drug pharmacokinetic parameters [1]: without significant modifications of individual drug pharmacokinetic parameters | All Body Systems, No. of Patients Experiencing the AE, 5y Max Grade 1 [2]: 36 | All Body Systems, No. of Patients Experiencing the AE, 5y Max Grade 2 [2]: 76 | All Body Systems, No. of Patients Experiencing the AE, 5y Max Grade 3 [2]: 55 | All Body Systems, No. of Patients Experiencing the AE, 5y Max Grade 4 [2]: 35 | Anemia, No. of Patients [2]: 90 | Anemia, No. of Patients Experiencing the AE, 5y Max Grade 1 [2]: 14 | Anemia, No. of Patients Experiencing the AE, 5y Max Grade 2 [2]: 48 | Anemia, No. of Patients Experiencing the AE, 5y Max Grade 3 [2]: 23 | Anemia, No. of Patients Experiencing the AE, 5y Max Grade 4 [2]: 5 | Anorexia, No. of Patients [2]: 15 | Anorexia, No. of Patients Experiencing the AE, 5y Max Grade 1 [2]: 11 | Anorexia, No. of Patients Experiencing the AE, 5y Max Grade 2 [2]: 3 | Anorexia, No. of Patients Experiencing the AE, 5y Max Grade 3 [2]: 1 | Anorexia, No. of Patients Experiencing the AE, 5y Max Grade 4 [2]: 0 | Anorexia, Percent [2]: 7.2% | Constipation, No. of Patients [2]: 10 | Constipation, No. of Patients Experiencing the AE, 5y Max Grade 1 [2]: 6 | Constipation, No. of Patients Experiencing the AE, 5y Max Grade 2 [2]: 2 | Constipation, No. of Patients Experiencing the AE, 5y Max Grade 3 [2]: 1 | Constipation, No. of Patients Experiencing the AE, 5y Max Grade 4 [2]: 0 | Constipation, Percent [2]: 4.8% | Diarrhea, No. of Patients [2]: 77 | Diarrhea, No. of Patients Experiencing the AE, 5y Max Grade 1 [2]: 43 | Diarrhea, No. of Patients Experiencing the AE, 5y Max Grade 2 [2]: 21 | Diarrhea, No. of Patients Experiencing the AE, 5y Max Grade 3 [2]: 10 | Diarrhea, No. of Patients Experiencing the AE, 5y Max Grade 4 [2]: 3 | Dyspepsia, No. of Patients [2]: 7 | Dyspepsia, No. of Patients Experiencing the AE, 5y Max Grade 1 [2]: 6 | Dyspepsia, No. of Patients Experiencing the AE, 5y Max Grade 2 [2]: 1 | Dyspepsia, No. of Patients Experiencing the AE, 5y Max Grade 3 [2]: 0 | Dyspepsia, No. of Patients Experiencing the AE, 5y Max Grade 4 [2]: 0 | Dyspepsia, Percent [2]: 3.3% | Fatigue, No. of Patients [2]: 33 | Fatigue, No. of Patients Experiencing the AE, 5y Max Grade 1 [2]: 23 | Fatigue, No. of Patients Experiencing the AE, 5y Max Grade 2 [2]: 8 | Fatigue, No. of Patients Experiencing the AE, 5y Max Grade 3 [2]: 2 | Fatigue, No. of Patients Experiencing the AE, 5y Max Grade 4 [2]: 0 | Fever, No. of Patients [2]: 11 | Fever, No. of Patients Experiencing the AE, 5y Max Grade 1 [2]: 4 | Fever, No. of Patients Experiencing the AE, 5y Max Grade 2 [2]: 7 | Fever, No. of Patients Experiencing the AE, 5y Max Grade 3 [2]: 0 | Fever, No. of Patients Experiencing the AE, 5y Max Grade 4 [2]: 0 | Fever, Percent [2]: 5.3% | Granulocytopenia, No. of Patients [2]: 37 | Granulocytopenia, No. of Patients Experiencing the AE, 5y Max Grade 1 [2]: 16 | Granulocytopenia, No. of Patients Experiencing the AE, 5y Max Grade 2 [2]: 17 | Granulocytopenia, No. of Patients Experiencing the AE, 5y Max Grade 3 [2]: 3 | Granulocytopenia, No. of Patients Experiencing the AE, 5y Max Grade 4 [2]: 5 | Headache, No. of Patients [2]: 7 | Headache, No. of Patients Experiencing the AE, 5y Max Grade 1 [2]: 4 | Headache, No. of Patients Experiencing the AE, 5y Max Grade 2 [2]: 3 | Headache, No. of Patients Experiencing the AE, 5y Max Grade 3 [2]: 0 | Headache, No. of Patients Experiencing the AE, 5y Max Grade 4 [2]: 0 | Headache, Percent [2]: 3.3% | Infection, No. of Patients [2]: 7 | Infection, No. of Patients Experiencing the AE, 5y Max Grade 1 [2]: 4 | Infection, No. of Patients Experiencing the AE, 5y Max Grade 2 [2]: 3 | Infection, No. of Patients Experiencing the AE, 5y Max Grade 3 [2]: 0 | Infection, No. of Patients Experiencing the AE, 5y Max Grade 4 [2]: 0 | Infection, Percent [2]: 3.3% | Leukopenia, No. of Patients [2]: 69 | Leukopenia, No. of Patients Experiencing the AE, 5y Max Grade 1 [2]: 26 | Leukopenia, No. of Patients Experiencing the AE, 5y Max Grade 2 [2]: 31 | Leukopenia, No. of Patients Experiencing the AE, 5y Max Grade 3 [2]: 10 | Leukopenia, No. of Patients Experiencing the AE, 5y Max Grade 4 [2]: 2 | Leukopenia, Percent [2]: 33.0% | Mucositis, No. of Patients [2]: 52 | Mucositis, No. of Patients Experiencing the AE, 5y Max Grade 1 [2]: 23 | Mucositis, No. of Patients Experiencing the AE, 5y Max Grade 2 [2]: 15 | Mucositis, No. of Patients Experiencing the AE, 5y Max Grade 3 [2]: 11 | Mucositis, No. of Patients Experiencing the AE, 5y Max Grade 4 [2]: 3 | Nausea, No. of Patients [2]: 91 | Nausea, No. of Patients Experiencing the AE, 5y Max Grade 1 [2]: 59 | Nausea, No. of Patients Experiencing the AE, 5y Max Grade 2 [2]: 19 | Nausea, No. of Patients Experiencing the AE, 5y Max Grade 3 [2]: 12 | Nausea, No. of Patients Experiencing the AE, 5y Max Grade 4 [2]: 1 | Pain Inject Site, No. of Patients [2]: 24 | Pain Inject Site, No. of Patients Experiencing the AE, 5y Max Grade 1 [2]: 24 | Pain Inject Site, No. of Patients Experiencing the AE, 5y Max Grade 2 [2]: 0 | Pain Inject Site, No. of Patients Experiencing the AE, 5y Max Grade 3 [2]: 0 | Pain Inject Site, No. of Patients Experiencing the AE, 5y Max Grade 4 [2]: 0 | Pain, Abdominal, No. of Patients [2]: 8 | Pain, Abdominal, No. of Patients Experiencing the AE, 5y Max Grade 1 [2]: 4 | Pain, Abdominal, No. of Patients Experiencing the AE, 5y Max Grade 2 [2]: 3 | Pain, Abdominal, No. of Patients Experiencing the AE, 5y Max Grade 3 [2]: 1 | Pain, Abdominal, No. of Patients Experiencing the AE, 5y Max Grade 4 [2]: 0 | Pain, Abdominal, Percent [2]: 3.8% | Rash, No. of Patients [2]: 53 | Rash, No. of Patients Experiencing the AE, 5y Max Grade 1 [2]: 26 | Rash, No. of Patients Experiencing the AE, 5y Max Grade 2 [2]: 15 | Rash, No. of Patients Experiencing the AE, 5y Max Grade 3 [2]: 9 | Rash, No. of Patients Experiencing the AE, 5y Max Grade 4 [2]: 3 | Somnolence, No. of Patients [2]: 9 | Somnolence, No. of Patients Experiencing the AE, 5y Max Grade 1 [2]: 7 | Somnolence, No. of Patients Experiencing the AE, 5y Max Grade 2 [2]: 2 | Somnolence, No. of Patients Experiencing the AE, 5y Max Grade 3 [2]: 0 | Somnolence, No. of Patients Experiencing the AE, 5y Max Grade 4 [2]: 0 | Somnolence, Percent [2]: 4.3% | Stomatitis, No. of Patients [2]: 60 | Stomatitis, No. of Patients Experiencing the AE, 5y Max Grade 1 [2]: 32 | Stomatitis, No. of Patients Experiencing the AE, 5y Max Grade 2 [2]: 20 | Stomatitis, No. of Patients Experiencing the AE, 5y Max Grade 3 [2]: 7 | Stomatitis, No. of Patients Experiencing the AE, 5y Max Grade 4 [2]: 1 | Thrombocytopenia, No. of Patients [2]: 94 | Thrombocytopenia, No. of Patients Experiencing the AE, 5y Max Grade 1 [2]: 26 | Thrombocytopenia, No. of Patients Experiencing the AE, 5y Max Grade 2 [2]: 31 | Thrombocytopenia, No. of Patients Experiencing the AE, 5y Max Grade 3 [2]: 16 | Thrombocytopenia, No. of Patients Experiencing the AE, 5y Max Grade 4 [2]: 21 | Thrombocytopenia, Percent [2]: 45.0% | Vomit, No. of Patients [2]: 73 | Vomit, No. of Patients Experiencing the AE, 5y Max Grade 1 [2]: 32 | Vomit, No. of Patients Experiencing the AE, 5y Max Grade 2 [2]: 24 | Vomit, No. of Patients Experiencing the AE, 5y Max Grade 3 [2]: 12 | Vomit, No. of Patients Experiencing the AE, 5y Max Grade 4 [2]: 5

NC(=O)c1[nH]nc([C@@H]2O[C@H](CO)[C@@H](O)[C@H]2O)c1O [pyrazofurin, 5-[(2S,3R,4S,5R)-3,4-dihydroxy-5-(hydroxymethyl)oxolan-2-yl]-4-hydroxy-1H-pyrazole-3-carboxamide]
therapeutic activity (advanced lung cancer): little therapeutic value as a single agent
